Laboratory results taken from PubChem BioAssay AID1259407 (Chemical Carcinogenesis Research Information System (CCRIS), 2018).
Activity calls are given as the source filed them. How the calls were made is not given here.

Tested on: CCRIS mutagenicity, Ames/micronucleus/aberration tests
Assay: CCRIS mutagenicity studies
Settings: Test System: AMES SALMONELLA TYPHIMURIUM

Q: With `C1O[C@@H]1[C@@H]1CO1` as the compound, how does the mutagenic call (Strain/Indicator: TA98, Metabolic Activation: HAMSTER, LIVER, S-9, AROCLOR 1254, Method: PREINCUBATION) read?
A: inactive; negative

Q: What about the mutagenic call (Strain/Indicator: TA98, Metabolic Activation: HAMSTER, LIVER, S-9, AROCLOR 1254, Method: STANDARD PLATE) of the same compound?
A: inactive; negative

Q: What about the mutagenic call (Strain/Indicator: TA98, Metabolic Activation: HAMSTER, LIVER, S-9, Method: PREINCUBATION) of the same compound?
A: inactive; negative

Q: What about the mutagenic call (Strain/Indicator: TA98, Metabolic Activation: HAMSTER, LIVER, S-9, Method: STANDARD PLATE) of the same compound?
A: inactive; negative

Q: And the mutagenic call (Strain/Indicator: TA98, Metabolic Activation: MOUSE, LIVER, S-9, AROCLOR 1254, Method: PREINCUBATION)?
A: inactive; negative

Q: What about the mutagenic call (Strain/Indicator: TA98, Metabolic Activation: MOUSE, LIVER, S-9, AROCLOR 1254, Method: STANDARD PLATE) of the same compound?
A: inactive; negative

Q: And the mutagenic call (Strain/Indicator: TA98, Metabolic Activation: MOUSE, LIVER, S-9, Method: PREINCUBATION)?
A: inactive; negative

Q: What about the mutagenic call (Strain/Indicator: TA98, Metabolic Activation: MOUSE, LIVER, S-9, Method: STANDARD PLATE) of the same compound?
A: inactive; negative

Q: What about the mutagenic call (Strain/Indicator: TA98, Metabolic Activation: NONE, Method: PREINCUBATION) of the same compound?
A: inactive; negative

Q: What about the mutagenic call (Strain/Indicator: TA98, Metabolic Activation: NONE, Method: STANDARD PLATE) of the same compound?
A: inactive; negative

Q: What about the mutagenic call (Strain/Indicator: TA98, Metabolic Activation: RAT, LIVER, S-9, AROCLOR 1254, Method: PREINCUBATION) of the same compound?
A: inactive; negative

Q: What about the mutagenic call (Strain/Indicator: TA98, Metabolic Activation: RAT, LIVER, S-9, Method: PREINCUBATION) of the same compound?
A: inactive; negative

Q: What about the mutagenic call (Strain/Indicator: TA98, Metabolic Activation: RAT, LIVER, S-9, Method: STANDARD PLATE) of the same compound?
A: inactive; negative

Q: And the mutagenic call (Strain/Indicator: TA100, Metabolic Activation: HAMSTER, LIVER, S-9, AROCLOR 1254, Method: PREINCUBATION)?
A: inactive; negative

Q: And the mutagenic call (Strain/Indicator: TA100, Metabolic Activation: HAMSTER, LIVER, S-9, AROCLOR 1254, Method: STANDARD PLATE)?
A: active; positive

Q: What about the mutagenic call (Strain/Indicator: TA100, Metabolic Activation: HAMSTER, LIVER, S-9, Method: PREINCUBATION) of the same compound?
A: inactive; negative

Q: And the mutagenic call (Strain/Indicator: TA100, Metabolic Activation: HAMSTER, LIVER, S-9, Method: STANDARD PLATE)?
A: active; positive

Q: And the mutagenic call (Strain/Indicator: TA100, Metabolic Activation: MOUSE, LIVER, S-9, AROCLOR 1254, Method: PREINCUBATION)?
A: inactive; negative

Q: What about the mutagenic call (Strain/Indicator: TA100, Metabolic Activation: MOUSE, LIVER, S-9, AROCLOR 1254, Method: STANDARD PLATE) of the same compound?
A: active; positive

Q: What about the mutagenic call (Strain/Indicator: TA100, Metabolic Activation: MOUSE, LIVER, S-9, Method: PREINCUBATION) of the same compound?
A: inactive; negative

Q: What about the mutagenic call (Strain/Indicator: TA100, Metabolic Activation: NONE, Method: PREINCUBATION) of the same compound?
A: inactive; negative

Q: And the mutagenic call (Strain/Indicator: TA100, Metabolic Activation: NONE, Method: STANDARD PLATE)?
A: active; positive

Q: And the mutagenic call (Strain/Indicator: TA100, Metabolic Activation: RAT, LIVER, S-9, AROCLOR 1254, Method: PREINCUBATION)?
A: inactive; negative

Q: What about the mutagenic call (Strain/Indicator: TA100, Metabolic Activation: RAT, LIVER, S-9, Method: PREINCUBATION) of the same compound?
A: inactive; negative

Q: What about the mutagenic call (Strain/Indicator: TA100, Metabolic Activation: RAT, LIVER, S-9, Method: STANDARD PLATE) of the same compound?
A: active; positive

Q: And the mutagenic call (Strain/Indicator: TA1535, Metabolic Activation: HAMSTER, LIVER, S-9, AROCLOR 1254, Method: PREINCUBATION)?
A: active; positive

Q: And the mutagenic call (Strain/Indicator: TA1535, Metabolic Activation: HAMSTER, LIVER, S-9, AROCLOR 1254, Method: STANDARD PLATE)?
A: active; positive

Q: And the mutagenic call (Strain/Indicator: TA1535, Metabolic Activation: HAMSTER, LIVER, S-9, Method: PREINCUBATION)?
A: active; positive

Q: What about the mutagenic call (Strain/Indicator: TA1535, Metabolic Activation: HAMSTER, LIVER, S-9, Method: STANDARD PLATE) of the same compound?
A: active; positive

Q: What about the mutagenic call (Strain/Indicator: TA1535, Metabolic Activation: MOUSE, LIVER, S-9, AROCLOR 1254, Method: PREINCUBATION) of the same compound?
A: active; positive

Q: What about the mutagenic call (Strain/Indicator: TA1535, Metabolic Activation: MOUSE, LIVER, S-9, AROCLOR 1254, Method: STANDARD PLATE) of the same compound?
A: active; positive

Q: And the mutagenic call (Strain/Indicator: TA1535, Metabolic Activation: MOUSE, LIVER, S-9, Method: PREINCUBATION)?
A: active; positive

Q: And the mutagenic call (Strain/Indicator: TA1535, Metabolic Activation: MOUSE, LIVER, S-9, Method: STANDARD PLATE)?
A: active; positive

Q: What about the mutagenic call (Strain/Indicator: TA1535, Metabolic Activation: NONE, Method: PREINCUBATION) of the same compound?
A: active; positive

Q: And the mutagenic call (Strain/Indicator: TA1535, Metabolic Activation: NONE, Method: STANDARD PLATE)?
A: active; positive

Q: What about the mutagenic call (Strain/Indicator: TA1535, Metabolic Activation: RAT, LIVER, S-9, AROCLOR 1254, Method: PREINCUBATION) of the same compound?
A: active; positive
